# Experimental data reported in article PMC11078216, “Discovery of potent and selective activity-based probes (ABPs) for the deubiquitinating enzyme USP30” (RSC Chemical Biology, 2024).
# Assays:
# Assay in all cases: ABPP chemical proteomics (LC-MS/MS) in HEK293T cells
# Assay type in all cases: cell-based
# ALYREF = target: T1, ALYREF (Homo sapiens, UniProt Q86V81); details: IMP-2586 labelling vs DMSO, 30 nM, 10 min, HEK293T (Table S4, Fig.5c)
# T1 construct: endogenous in cells; host or cells: HEK293T
# Outline: (§1)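 Proteome-wide selectivity was profiled by competitive ABPP. Cells received […] and then activity-based probe for 1 h at 37 °C. Lysates were ligated to biotin capture tags, affinity-enriched and analysed by mass spectrometry.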
# CNP = target: T2, CNP (Homo sapiens, UniProt P09543); details: IMP-2586 labelling vs DMSO, 30 nM, 10 min, HEK293T (Table S4, Fig.5c)
# T2 construct: endogenous in cells; host or cells: HEK293T
# T2 sequence (P09543 whole entry): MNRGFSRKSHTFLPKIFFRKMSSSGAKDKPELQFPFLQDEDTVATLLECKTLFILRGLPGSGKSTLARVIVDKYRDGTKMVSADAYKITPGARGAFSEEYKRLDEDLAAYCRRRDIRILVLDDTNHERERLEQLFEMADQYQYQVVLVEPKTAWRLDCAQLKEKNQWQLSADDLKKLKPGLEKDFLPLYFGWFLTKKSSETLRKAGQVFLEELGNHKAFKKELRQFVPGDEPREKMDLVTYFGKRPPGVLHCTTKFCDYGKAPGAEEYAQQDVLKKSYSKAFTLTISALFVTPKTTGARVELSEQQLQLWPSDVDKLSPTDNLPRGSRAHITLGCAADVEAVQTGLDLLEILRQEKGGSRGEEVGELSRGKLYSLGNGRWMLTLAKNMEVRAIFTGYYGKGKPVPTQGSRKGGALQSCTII
# Outline: as §1
# GET4 = target: T3, GET4 (Homo sapiens, UniProt Q7L5D6); details: IMP-2587 labelling vs DMSO, 30 nM, 10 min, HEK293T (Table S2, Fig.5a)
# T3 construct: endogenous in cells; host or cells: HEK293T
# T3 sequence (Q7L5D6 whole entry): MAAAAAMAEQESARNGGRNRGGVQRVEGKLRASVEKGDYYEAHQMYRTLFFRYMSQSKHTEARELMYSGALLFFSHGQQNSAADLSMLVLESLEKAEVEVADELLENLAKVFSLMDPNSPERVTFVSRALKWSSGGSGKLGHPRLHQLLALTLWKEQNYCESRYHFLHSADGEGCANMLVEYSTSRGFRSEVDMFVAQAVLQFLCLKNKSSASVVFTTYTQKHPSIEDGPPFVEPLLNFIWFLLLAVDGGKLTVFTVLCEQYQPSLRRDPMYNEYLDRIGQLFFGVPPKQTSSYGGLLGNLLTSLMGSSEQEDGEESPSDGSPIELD
# Outline: as §1
# HMGCS1 = target: T4, HMGCS1 (Homo sapiens, UniProt Q01581); details: IMP-2587 labelling vs DMSO, 30 nM, 10 min, HEK293T (Table S2, Fig.5a)
# T4 construct: endogenous in cells; host or cells: HEK293T
# T4 sequence (Q01581 whole entry): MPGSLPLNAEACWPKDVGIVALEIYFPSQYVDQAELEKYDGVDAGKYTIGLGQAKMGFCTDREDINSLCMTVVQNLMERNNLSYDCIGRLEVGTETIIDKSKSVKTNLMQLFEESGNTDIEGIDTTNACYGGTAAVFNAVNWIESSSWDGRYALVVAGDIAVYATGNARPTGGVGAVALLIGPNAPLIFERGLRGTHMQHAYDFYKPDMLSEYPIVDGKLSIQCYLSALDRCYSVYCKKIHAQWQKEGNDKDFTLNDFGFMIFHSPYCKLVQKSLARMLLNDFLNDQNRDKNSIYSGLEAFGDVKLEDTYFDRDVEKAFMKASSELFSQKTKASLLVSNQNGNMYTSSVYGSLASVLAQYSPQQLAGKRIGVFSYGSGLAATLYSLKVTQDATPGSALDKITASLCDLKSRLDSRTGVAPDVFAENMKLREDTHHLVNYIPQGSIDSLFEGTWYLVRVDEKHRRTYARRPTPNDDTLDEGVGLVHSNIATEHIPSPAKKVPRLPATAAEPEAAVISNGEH
# Outline: as §1
# RPS8 = target: T5, RPS8 (Homo sapiens, UniProt P62241); details: IMP-2587 labelling vs DMSO, 30 nM, 10 min, HEK293T (Table S2, Fig.5a)
# T5 construct: endogenous in cells; host or cells: HEK293T
# Outline: as §1
# UCHL1 = target: T6, UCHL1 (Homo sapiens, UniProt P09936); design: endogenous in cells; host or cells: HEK293T; details: IMP-2587 labelling vs DMSO, 30 nM, 10 min, HEK293T (Table S2, Fig.5a)
# T6 sequence (P09936 1-223): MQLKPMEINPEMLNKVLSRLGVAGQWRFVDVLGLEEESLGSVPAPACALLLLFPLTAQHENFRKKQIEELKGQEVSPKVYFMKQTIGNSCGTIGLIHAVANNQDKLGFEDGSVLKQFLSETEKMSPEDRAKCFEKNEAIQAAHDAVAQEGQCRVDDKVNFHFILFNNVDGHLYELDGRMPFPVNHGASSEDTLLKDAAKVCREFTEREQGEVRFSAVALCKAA
# Experimental: To explore the selectivity of IMP-2587 and IMP-2586 across the whole proteome, we performed quantitative activity-based protein profiling (ABPP) in HEK293T cells following treatment with IMP-2587 or IMP-2586 (Fig. 3a). After ABP incubation, cells were lysed, and probe-labelled proteins were ligated to biotinylated capture reagents.[27] […] USP30 was outcompeted by corresponding parent inhibitors for each ABP (Fig. 5b and d and Tables S3 and S5, ESI ^†), confirming the high potency and rapid engagement of IMP-2587 and IMP-2586 in cells. […] DESI1 and DESI2 are small ubiquitin-related modifier (SUMO) proteases,[3,29–32] and IMP-2587 and IMP-2586 may offer a starting point for future development of DESI ABPs. […]
# The lysate samples (10-20 μg) were mixed with 4× Laemmli sample loading buffer (250 mM Tris -HCl pH 6.8, 30% (v/v) glycerol, 10% (w/v) SDS, 0.05% (w/v) bromophenol blue) supplemented with 20% v/v β-mercaptoethanol (BME) and boiled for 10 min at 95 °C. […] Gel were imaged on a Typhoon imager (GE Healthcare; λEx 532 nm, λEm 575 nm for TAMRA. For protein loading quantification, gels were stained with Coomassie blue staining solution overnight, rinsed with water and imaged on an ImageQuant™ LAS 4000 imager (GE Healthcare). f) Neutravidin biotin enrichment (Affinity pull-down) […]
# IMPDH2 = target: T7, IMPDH2 (Homo sapiens, UniProt P12268); details: compound 1 out-competition with IMP-2587 labelling, HEK293T (Table S3, Fig.5b)
# T7 construct: endogenous in cells; host or cells: HEK293T
# Outline: as §1
structure (smiles),measurement,setting,value
N#CN1CC[C@@H](NC(=O)c2cc(-c3ccccc3Oc3ccc(N=[N+]=[N-])cc3)n[nH]2)C1 [IMP-2586],Difference (log2 fold change of enrichment),ALYREF,-0.42
same,Difference (log2 fold change of enrichment),CNP,-0.68
C#Cc1cccc(-c2cc(NC(=O)CC3CCN(C#N)C3)on2)c1 (stereo not shown) [IMP-2587],Difference (log2 fold change of enrichment),GET4,0.76
same,Difference (log2 fold change of enrichment),HMGCS1,0.75
same,Difference (log2 fold change of enrichment),RPS8,-0.44
same,Difference (log2 fold change of enrichment),UCHL1,0.76
"N#CN1CC[C@H](CC(=O)Nc2cc(-c3cccc(Cl)c3)no2)C1 [compound 1, reference compound]",Difference (log2 fold change of enrichment),IMPDH2,-0.70
